Columns and labels:
[1] = biological target: CDK19 (Homo sapiens (Human), UniProt Q9BWU1); assay: Kinase selectivity panel of 54 kinases (SelectScreen); format: biochemical; conditions: 150 nM, 54-kinase panel
Procedure: (§1) Compounds were tested for kinase inhibitory activity using the Thermo Fisher SelectScreen service (www.thermofisher.com/selectscreen). For CDK8, the LanthaScreen Eu Binding Assay was used. Briefly, the assay employed utilizes a fluorescent tracer to a given kinase. This is used to detect the addition of an anti-tag antibody. When the tracer and antibody bind to the targeted kinase, the Forster resonance energy transfer is measured. When a kinase inhibitor is added to the assay, the tracer/kinase binding will be disrupted, producing low FRET detection and indicating kinase inhibitory activity. Evaluation of kinase activity of additional kinase targets utilized the LanthaScreen binding assay or the Z′-Lyte activity assay provided by Thermo Fisher SelectScreen service. The IC50 values were determined using sequential doses, and the inhibition curves were provided by Thermo Fisher Scientific.
(§2) Compound k was evaluated for kinase selectivity. […] The cytotoxicity of compound k was then assessed in DU145 and PC-3 cells, human prostate cancer cell lines isolated from patients with brain and bone metastasis, respectively. […] To further examine whether compound k still inhibited CDK8/19 inhibition in cells, we assessed whether compound treatment in DU145/PC-3 androgen-independent prostate cancer cells could inhibit STAT1-S727 phosphorylation. […]

[2] = system: other CDKs and kinases; assay: as above; format: biochemical; conditions: 150 nM, 54-kinase panel
Procedure: as §1, §2

[3] = system: STAT1-S727 phosphorylation (CDK8/19 kinase activity); assay: STAT1-S727 phosphorylation western blot in DU145/PC-3 cells; format: cell-based, human
Procedure: FIGS. 2A-2D show the evaluation of CDK8 inhibition by compound k. […] Cell viability was measured by MTT assay, and the 50% inhibitory concentration (IC50) values were calculated by a sigmoidal dose-response equation. […] Whole-cell lysates were subjected to western blotting with the indicated antibodies. The results are shown as the mean t SEM from at least three independent experiments (*p<0.05, **p<0.01, and ***p<0.001 vs. control group; #p<0.05 vs. relevant control).
The cells were incubated in lysis buffer for 10 min at 4° C., scraped off, incubated on ice for an additional 10 min and then centrifuged at 17,000 g for 30 min at 4° C. Protein samples were electrophoresed on SDS-PAGE gels, transferred to PVDF membranes and blocked with 5% fat-free milk in PBS for 30 min at room temperature. Immunoblotting was performed overnight with primary antibodies in PBS at 4° C., followed by incubation with HRP-conjugated secondary antibodies for 1 h at room temperature. Bound antibodies will be measured using an ECL reagent and exposed to a photographic film. In the immunoprecipitation assay, cell lysates were immunoprecipitated with 1 μg of antibody and A/G agarose beads overnight at 4° C. After washing the precipitated beads three times with 1 mL ice-cold cell lysis buffer, bound immune complexes were separated by 10% SDS-PAGE and analyzed with immunoblotting.

[4] = system: A549 cells; assay: Wound-healing migration assay; format: cell-based, human; conditions: compounds 2 μM, senexin A 5 μM, pirfenidone 1 mM; TGF-β1 10 ng/mL; 24 or 48 h
Procedure: A549 cells were incubated in six-well plates until reaching 90% confluency, scratched with a pipette tip, and immediately photographed (0 h). Cells were incubated with or without compound k (2 μM), senexin A (5 μM), or pirfenidone (1 mM) for 1 h, then treated with TGF-β1 (10 ng/mL) and allowed to migrate into the wound area for 24 or 48 h, and photographed. Cell migration into the wound was quantified using ImageJ software; the solid line indicates time zero. Quantitative assessment of the mean number of cells in the denuded zone is expressed as the mean±SEM from three independent experiments. **p<0.01 compared to the control group; ##p<0.01 and ###p<0.001 compared to TGF-β1-treated group.
Cells were seeded in six-well plates and cultured to 90% confluency, at which time the cellular monolayer was wounded with a sterile 10-μL pipette tip and washed with culture medium to remove detached cells. Cells were incubated in the presence or absence of test compounds for 24 h and photographed. The wound closure percentages were subsequently determined using ImageJ software (National Institutes of Health, USA).

[5] = system: prostate cancer cells; assay: Transwell migration assay; format: cell-based, human; conditions: both prostate cancer cells
[6] = system: prostate cancer cells; assay: TGF-β1-induced EMT proteins and gene expression, western blot and real-time PCR; format: cell-based, human
Procedure: Cells were exposed to compound k as indicated concentrations or senexin A (10 μM) in the presence or absence of TGF-β1 (10 ng/mL) for 24 h, the proteins and mRNA levels of E-cadherin, N-cadherin, Snail, vimentin, α-SMA were determined by western blot (A) or real-time PCR (B). Results are shown as the mean±SEM from at least three independent experiments (**p<0.01, ***p<0.001 vs. control group; #p<0.05, ##p<0.01, and ###p<0.001 vs. TGF-β1 treatment group).
Total RNA was isolated from cells using TRIzol reagent (Invitrogen). […] Quantitative PCR was performed using TaqMan One Step RT-PCR mastermix (ABI) in a total reaction volume of 20 μL per reaction, consisting of 10 μL of SYBR green PCR master mix (Applied Biosystems), 5 pmol of each forward/reverse primer, and 2 μL of cDNA. […] The threshold cycle (Ct) in the exponential phase of amplification was detected, the relative mRNA expression level was determined by calculating the ΔΔCt values, and the fold change was expressed as 2^−ΔΔCt. […]
The cells were incubated in lysis buffer for 10 min at 4° C., scraped off, incubated on ice for an additional 10 min and then centrifuged at 17,000 g for 30 min at 4° C. […] Bound antibodies will be measured using an ECL reagent and exposed to a photographic film. […]

[7] = system: CDH1 reporter in DU145 cells; assay: 7TFP CDH1 reporter luciferase assay; format: cell-based, human; conditions: TGF-β1 10 ng/mL, 24 h

Sequence of CDK19 (Q9BWU1 whole entry): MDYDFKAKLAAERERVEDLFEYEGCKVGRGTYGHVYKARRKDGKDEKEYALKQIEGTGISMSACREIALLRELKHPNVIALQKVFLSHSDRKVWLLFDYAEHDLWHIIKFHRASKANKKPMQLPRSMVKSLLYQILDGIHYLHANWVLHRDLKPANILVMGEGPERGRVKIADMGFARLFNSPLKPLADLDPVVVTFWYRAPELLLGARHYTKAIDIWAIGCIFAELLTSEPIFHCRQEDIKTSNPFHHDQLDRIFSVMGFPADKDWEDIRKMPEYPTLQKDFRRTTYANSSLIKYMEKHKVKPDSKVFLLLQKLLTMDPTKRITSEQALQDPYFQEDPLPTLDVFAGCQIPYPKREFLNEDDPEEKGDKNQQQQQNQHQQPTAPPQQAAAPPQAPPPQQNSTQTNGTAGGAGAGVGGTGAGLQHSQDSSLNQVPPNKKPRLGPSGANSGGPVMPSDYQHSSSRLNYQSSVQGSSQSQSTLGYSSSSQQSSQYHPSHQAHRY

Question: `CNC(=O)c1cc(Oc2ccc(NS(=O)(=O)c3ccc4c(c3)C(=C(C)C)C(=O)N4)c(F)c2)ccn1` [Compound k, 4-(3-Fluoro-4-((2-oxo-3-(propan-2-ylidene)indoline)-5-sulfonamido)phenoxy)-N-methylpicolinamide] was tested. Which CDK19 inhibition percentage [1] did it give?
Answer: 40%

Question: And the “effect on other CDKs and kinases” value [2]?
Answer: no significant effect

Question: And the “phosphorylation of STAT1 at Ser727” value ([3]; DU145/PC-3, 24 h, concentration-dependent)?
Answer: suppressed

Question: And the “phosphorylation of STAT1 at Ser727 in CDK8-overexpressing cells” value ([3]; pcDNA3 CDK8 HA transfected DU145 and PC-3, concentration-dependent)?
Answer: significantly inhibited

Question: What about the “inhibition of cell migration” value [4] of the same compound?
Answer: potent inhibition

Question: And the “TGF-β1-triggered cell migration (transwell)” value [5]?
Answer: significantly inhibited

Question: What about the “TGF-β1 effects on E-cadherin, N-cadherin, Snail, vimentin” value ([6]; TGF-β1 10 ng/mL, 24 h) of the same compound?
Answer: attenuated the effects of TGF-β1

Question: And the “EMT protein inhibitory effects compared with senexin A” value ([6]; senexin A 10 μM)?
Answer: more potent

Question: What about the “CDH1-driven luciferase expression reduced by TGF-β1” value [7] of the same compound?
Answer: reversed this effect to the control level

— patent publication US20250109120A1, “INDOLINE DERIVATIVES FOR TREATMENT AND/OR PREVENTION OF TUMOR OR CELL PROLIFERATIVE AND FIBROSIS DISEASES” (NATIONAL TAIWAN UNIVERSITY, priority 2023, published 2025)
